Source: ChEMBL document CHEMBL1201862, “PubChem BioAssay data set” (2004)
Activity calls are given as the source filed them.

Key:
[1] = biological target: T1, Neuropeptides B/W receptor type 1 (Homo sapiens, UniProt P48145); test: Fluorescence-based dose response cell-based high throughput screening assay to identify antagonists of the G-protein coupled receptor 7 (GPR7). [Related pubchem assays: 1952 (Screening assay (GPR7 antagonists).), 1880 (Summary AID.)]; format: functional
T1 sequence (P48145 whole entry): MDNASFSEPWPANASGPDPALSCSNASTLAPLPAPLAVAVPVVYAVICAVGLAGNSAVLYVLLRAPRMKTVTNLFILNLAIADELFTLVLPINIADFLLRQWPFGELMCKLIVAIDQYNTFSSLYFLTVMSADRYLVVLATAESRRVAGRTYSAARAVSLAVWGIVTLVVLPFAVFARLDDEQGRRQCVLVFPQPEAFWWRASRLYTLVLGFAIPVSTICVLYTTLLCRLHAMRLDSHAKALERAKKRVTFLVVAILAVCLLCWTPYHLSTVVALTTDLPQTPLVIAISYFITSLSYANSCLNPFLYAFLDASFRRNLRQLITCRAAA

[2] = biological target: Melanin-concentrating hormone receptor 1 (Homo sapiens, UniProt Q99705); test: Fluorescence-based counterscreen for antagonists of the G-protein coupled receptor 7 (GPR7): cell-based high throughput dose response assay to identify antagonists of the melanin-concentrating hormone receptor 1 (MCHR1).; format: functional
Melanin-concentrating hormone receptor 1, sequence (Q99705 whole entry): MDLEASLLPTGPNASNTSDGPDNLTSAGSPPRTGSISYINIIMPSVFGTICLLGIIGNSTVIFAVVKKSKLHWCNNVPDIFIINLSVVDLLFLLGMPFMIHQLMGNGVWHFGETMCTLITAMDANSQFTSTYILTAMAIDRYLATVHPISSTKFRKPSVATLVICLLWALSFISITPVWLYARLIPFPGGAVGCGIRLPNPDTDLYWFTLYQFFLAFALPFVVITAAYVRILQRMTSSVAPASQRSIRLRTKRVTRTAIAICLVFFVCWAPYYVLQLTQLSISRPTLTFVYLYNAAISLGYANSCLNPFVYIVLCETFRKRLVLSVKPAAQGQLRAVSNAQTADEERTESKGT

[3] = biological target: Heat shock protein HSP 90-alpha (Homo sapiens, UniProt P07900); format: functional, organism-based
[4] = biological target: G-protein coupled receptor 35 (Homo sapiens, UniProt Q9HC97); test: GPR35 antagonists blocking zaprinast-driven arrestin recruitment, primary screen, imaging, U2OS, beta-arrestin-GFP, zaprinast agonist (AID 2058); format: functional;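 further: antagonist potency meaning inhibition of agonist-induced arrestin redistribution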
G-protein coupled receptor 35, sequence (Q9HC97 whole entry): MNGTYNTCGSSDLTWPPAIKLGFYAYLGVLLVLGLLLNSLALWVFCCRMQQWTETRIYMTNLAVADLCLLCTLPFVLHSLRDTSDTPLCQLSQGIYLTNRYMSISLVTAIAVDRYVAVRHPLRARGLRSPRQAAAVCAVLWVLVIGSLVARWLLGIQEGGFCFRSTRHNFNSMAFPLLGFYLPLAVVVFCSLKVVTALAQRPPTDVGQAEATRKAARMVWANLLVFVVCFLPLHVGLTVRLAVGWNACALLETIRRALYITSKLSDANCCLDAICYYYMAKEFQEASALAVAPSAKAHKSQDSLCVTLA

[5] = inhibitors of intracellular T. cruzi replication, confirmation, NIH3T3 host cells, beta-gal luminescence (AID 2044); format: functional, cell-based;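 further: intracellular parasites grown in NIH/3T3 mouse fibroblasts as host cells; luminescent beta-galactosidase reporter signal from transgenic T. cruzi replicating inside host cells; inhibitors lower the luminescence signal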
[6] = growth suppression of PTEN-null colon cells, dose response, cell-based, HCT116 PTEN knockout (AID 1047); format: functional;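 further: HCT116 colon tumor cells with PTEN knocked out; cells exposed to compound for 60 hours before readout; potency for loss of cell viability measured by luminescence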
[7] = growth suppression of beta-catenin-knockout colon cells, dose response, cell-based, HCT116, human colon tumor (AID 1045); format: functional;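 further: HCT116 colon tumor cells with beta catenin knocked out; cells exposed to compound for 60 hours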
INS1 = test: beta cell apoptosis inhibitors, cytokine rescue, dose response, luminescence, retest (AID 449756); format: functional, cell-based; details: Rattus norvegicus;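 further: cell death triggered by IL-1 beta plus TNF-alpha plus IFN-gamma mixture; protective hits raise ATP signal compared with cytokine alone wells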
[8] = inhibitors of firefly luciferase expression or activity, dose response, H4 neuroglioma cells, luminescence (AID 1990); format: functional, cell-based
[9] = luciferase reporter signal reduction – luminescence, H4-C neuroglioblastoma cells, dose response (AID 2458); format: functional, cell-based;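 further: H4 neuroglioblastoma cells stably carrying a luciferase reporter gene fusion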
cells = format: functional, cell-based
[10] = inhibitors of SNCA 5'UTR-driven reporter translation, confirmation, H4 neuroglioma cells, luminescence (AID 1988); format: functional, cell-based
[11] = inhibitors of SNCA 5'UTR-driven translation, confirmation, luminescence, H4 neuroglioblastoma cells, dose confirmation (AID 2454); format: functional, cell-based;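 further: H4 neuroglioblastoma cells carrying an alpha-synuclein 5'UTR luciferase reporter; potency for inhibition of the luciferase signal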
[12] = cytotoxicity in HEK-293T cells, dose response, cytotoxicity control for TCR NF-kB inhibitor project, luminescence, T-cell screen hits (AID 489026); format: functional, cell-based;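 further: cells exposed to compound about 14 hours before the viability readout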
[13] = biological target: Intestinal-type alkaline phosphatase (Homo sapiens, UniProt P09923); test: Dose Response confirmation of uHTS hits from a small molecule inhibitors of human intestinal alkaline phosphatase via a luminescent assay. [Related pubchem assays (depositor defined):AID2544, AID2574]; format: functional
Intestinal-type alkaline phosphatase, sequence (P09923 whole entry): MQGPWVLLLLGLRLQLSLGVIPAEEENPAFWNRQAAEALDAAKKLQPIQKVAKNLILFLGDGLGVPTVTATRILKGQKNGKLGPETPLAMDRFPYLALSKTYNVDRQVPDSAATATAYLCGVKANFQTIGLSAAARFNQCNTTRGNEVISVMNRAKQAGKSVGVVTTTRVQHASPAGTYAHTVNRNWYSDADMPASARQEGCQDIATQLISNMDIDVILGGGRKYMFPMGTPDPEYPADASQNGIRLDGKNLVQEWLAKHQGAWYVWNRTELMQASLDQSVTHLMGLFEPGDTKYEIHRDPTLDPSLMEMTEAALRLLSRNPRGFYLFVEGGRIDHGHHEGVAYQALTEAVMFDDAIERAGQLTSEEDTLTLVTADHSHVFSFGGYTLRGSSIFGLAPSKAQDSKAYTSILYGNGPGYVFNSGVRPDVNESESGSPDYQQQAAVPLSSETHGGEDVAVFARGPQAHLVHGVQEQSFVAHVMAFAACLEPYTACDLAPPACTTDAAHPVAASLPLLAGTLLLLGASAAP

[14] = biological target: C-C chemokine receptor type 6 (Homo sapiens, UniProt P51684); test: CCR6 receptor antagonists, dose response, cell-based, luminescent beta-arrestin readout (AID 504728); format: functional
C-C chemokine receptor type 6, sequence (P51684 whole entry): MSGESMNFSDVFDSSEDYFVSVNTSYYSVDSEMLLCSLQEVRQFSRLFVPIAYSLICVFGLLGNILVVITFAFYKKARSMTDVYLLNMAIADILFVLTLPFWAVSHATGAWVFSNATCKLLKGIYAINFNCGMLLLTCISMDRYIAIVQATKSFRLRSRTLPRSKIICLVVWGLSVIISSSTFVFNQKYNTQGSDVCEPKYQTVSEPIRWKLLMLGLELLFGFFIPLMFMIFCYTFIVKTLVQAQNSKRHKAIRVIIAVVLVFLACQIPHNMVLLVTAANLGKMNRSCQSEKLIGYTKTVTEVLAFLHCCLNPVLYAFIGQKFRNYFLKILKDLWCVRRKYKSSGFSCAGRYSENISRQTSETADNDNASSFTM

Beta-galactosidase = Beta-galactosidase (Escherichia coli, UniProt Q8VNN2); test: beta-galactosidase enzyme inhibitors and activators, dose response, artefact control for CCR6 antagonist project, biochemical, E. coli enzyme, set 3 (AID 504712); format: functional
Beta-galactosidase, sequence (Q8VNN2 whole entry): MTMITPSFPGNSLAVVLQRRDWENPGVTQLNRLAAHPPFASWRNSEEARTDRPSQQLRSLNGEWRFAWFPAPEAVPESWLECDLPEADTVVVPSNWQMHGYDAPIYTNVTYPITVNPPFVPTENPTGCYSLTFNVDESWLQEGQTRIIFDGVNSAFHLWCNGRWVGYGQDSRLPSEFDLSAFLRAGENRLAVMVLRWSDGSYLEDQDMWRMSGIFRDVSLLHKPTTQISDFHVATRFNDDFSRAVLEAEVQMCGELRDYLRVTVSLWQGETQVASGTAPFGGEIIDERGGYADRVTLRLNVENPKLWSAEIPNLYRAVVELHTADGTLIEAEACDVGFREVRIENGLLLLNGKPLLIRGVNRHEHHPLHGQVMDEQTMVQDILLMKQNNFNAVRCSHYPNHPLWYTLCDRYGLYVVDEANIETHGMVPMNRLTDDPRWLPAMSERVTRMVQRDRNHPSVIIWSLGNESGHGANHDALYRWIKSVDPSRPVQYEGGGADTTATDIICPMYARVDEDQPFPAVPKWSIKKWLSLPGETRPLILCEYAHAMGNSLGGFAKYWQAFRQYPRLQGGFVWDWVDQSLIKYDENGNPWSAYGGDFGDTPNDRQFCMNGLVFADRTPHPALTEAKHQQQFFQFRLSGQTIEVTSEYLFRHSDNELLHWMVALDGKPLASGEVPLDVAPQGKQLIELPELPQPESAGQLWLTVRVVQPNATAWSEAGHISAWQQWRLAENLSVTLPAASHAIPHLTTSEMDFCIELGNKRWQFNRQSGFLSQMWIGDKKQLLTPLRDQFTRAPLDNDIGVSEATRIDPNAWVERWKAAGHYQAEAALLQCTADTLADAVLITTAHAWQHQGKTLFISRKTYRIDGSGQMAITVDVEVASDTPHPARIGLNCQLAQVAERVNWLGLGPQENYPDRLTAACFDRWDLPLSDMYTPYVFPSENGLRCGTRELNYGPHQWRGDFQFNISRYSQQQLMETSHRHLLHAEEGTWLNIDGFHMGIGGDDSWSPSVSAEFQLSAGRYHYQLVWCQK

[15] = biological target: T2, Eukaryotic translation initiation factor 2-alpha kinase 3 (Homo sapiens, UniProt Q9NZJ5); test: Dose response cell-based high-throughput screening assay to measure PERK inhibition. [Related pubchem assays: 1416 ]; format: functional
T2 sequence (Q9NZJ5 whole entry): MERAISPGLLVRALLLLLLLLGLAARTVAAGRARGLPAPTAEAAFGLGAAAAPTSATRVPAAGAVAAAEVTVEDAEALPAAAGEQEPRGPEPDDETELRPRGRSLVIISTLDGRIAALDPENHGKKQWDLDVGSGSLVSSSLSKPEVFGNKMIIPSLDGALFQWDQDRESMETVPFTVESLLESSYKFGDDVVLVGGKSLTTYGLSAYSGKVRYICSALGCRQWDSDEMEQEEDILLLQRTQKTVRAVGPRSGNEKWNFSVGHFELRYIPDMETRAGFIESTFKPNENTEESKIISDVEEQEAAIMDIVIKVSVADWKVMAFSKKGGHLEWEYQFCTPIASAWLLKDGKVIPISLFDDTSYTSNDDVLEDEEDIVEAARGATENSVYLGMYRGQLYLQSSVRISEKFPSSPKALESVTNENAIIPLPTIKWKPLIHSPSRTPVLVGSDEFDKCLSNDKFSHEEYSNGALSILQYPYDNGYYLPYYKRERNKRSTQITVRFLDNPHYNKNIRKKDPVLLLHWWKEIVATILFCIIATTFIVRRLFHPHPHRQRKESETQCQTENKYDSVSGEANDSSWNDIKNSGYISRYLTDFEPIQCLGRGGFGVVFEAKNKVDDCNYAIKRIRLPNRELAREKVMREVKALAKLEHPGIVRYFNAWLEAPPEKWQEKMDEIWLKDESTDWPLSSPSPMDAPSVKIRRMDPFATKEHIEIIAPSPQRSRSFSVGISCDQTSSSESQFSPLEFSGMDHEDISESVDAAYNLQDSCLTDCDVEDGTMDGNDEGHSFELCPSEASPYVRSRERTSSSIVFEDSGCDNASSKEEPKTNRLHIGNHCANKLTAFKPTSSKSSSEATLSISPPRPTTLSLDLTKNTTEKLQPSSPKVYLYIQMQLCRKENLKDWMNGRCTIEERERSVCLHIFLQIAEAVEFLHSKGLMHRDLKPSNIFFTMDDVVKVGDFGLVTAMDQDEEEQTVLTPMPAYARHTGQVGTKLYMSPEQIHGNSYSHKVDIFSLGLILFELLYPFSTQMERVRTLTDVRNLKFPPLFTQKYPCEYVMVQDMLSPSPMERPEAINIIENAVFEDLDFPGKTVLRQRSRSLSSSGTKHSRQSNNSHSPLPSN

[16] = biological target: T2, Eukaryotic translation initiation factor 2-alpha kinase 3; test: Counterscreen assay for PERK inhibitors: Dose response cell-based high throughput screening assay to measure inhibition of PERK at 6 hours. [Related pubchem assays: 1522, 1416 ]; format: functional

With `Cc1ccc(N2C(=O)C3C4C=CC(CN=C(S)Nc5ccc(Cl)cc5)(O4)C3C2=O)cc1` (centres undefined) the IC50 [1] was 42.8 µM (not active), the IC50 [2] was 18.9 µM (not active) and the AC50 [3] was 25.4 µM (active).
In the case of `COc1ccc(/N=C2\S/C(=C\c3ccc(N4CCOCC4)o3)C(=O)N2CCc2c[nH]c3ccccc23)cc1`, the IC50 [4] was 1.49 µM (active), the EC50 [5] was 0.335 µM (active) and the EC50 [6] was 10 µM (active). The EC50 [7] was 7.54 µM (active) and the AC50 (INS1) was 7.09 µM (active).
With `CCOC(=O)C(C)Oc1cccc2c(=O)n(CC(=O)NCc3ccc(F)cc3)ccc12` (centres undefined) the EC50 [8] was 0.3 µM (active), the EC50 [9] was > 12 µM (not active) and the EC50 (cells) was 1.67 µM (active). For the same compound, the EC50 [10] was < 0.1 µM (active), the EC50 [11] was > 12 µM (inconclusive) and the IC50 [12] was > 80 µM (inactive).
For `O=C(COc1ccccc1Cl)N1CCN(c2ccc([N+](=O)[O-])c(N3CCCCC3)c2)CC1`, the IC50 [13] was > 100 µM (inactive).
With `CC[N+]1(C)CCC(O)(/C=C/c2ccccc2)C(C(=O)/C=C/c2ccccc2)C1` (centres undefined) the IC50 [14] was 39.9 µM (inactive) and the IC50 (Beta-galactosidase) was > 66.6 µM (inactive).
With `O/N=C/c1ccc2cccc(O)c2n1` the EC50 [15] was > 55.7 µM (not active) and the EC50 [16] was > 55.7 µM (not active).
